Test results published in ChEMBL document CHEMBL1143045, “Tricyclic isoxazolines: identification of R226161 as a potential new antidepressant that combines potent serotonin reuptake inhibition and alpha2-adrenoceptor antagonism” (Bioorg Med Chem, 2007).
Active and inactive are the calls of the source. The calls are words filed in the database; no cut-off is given here.

Tests used:
[1] = target: T1, Alpha-2A adrenergic receptor (Homo sapiens, UniProt P08913); experiment: Displacement of [3H]rawolscine from human cloned adrenergic alpha2A receptor transfected in CHO cells; format: cell-based
T1 sequence (P08913 whole entry): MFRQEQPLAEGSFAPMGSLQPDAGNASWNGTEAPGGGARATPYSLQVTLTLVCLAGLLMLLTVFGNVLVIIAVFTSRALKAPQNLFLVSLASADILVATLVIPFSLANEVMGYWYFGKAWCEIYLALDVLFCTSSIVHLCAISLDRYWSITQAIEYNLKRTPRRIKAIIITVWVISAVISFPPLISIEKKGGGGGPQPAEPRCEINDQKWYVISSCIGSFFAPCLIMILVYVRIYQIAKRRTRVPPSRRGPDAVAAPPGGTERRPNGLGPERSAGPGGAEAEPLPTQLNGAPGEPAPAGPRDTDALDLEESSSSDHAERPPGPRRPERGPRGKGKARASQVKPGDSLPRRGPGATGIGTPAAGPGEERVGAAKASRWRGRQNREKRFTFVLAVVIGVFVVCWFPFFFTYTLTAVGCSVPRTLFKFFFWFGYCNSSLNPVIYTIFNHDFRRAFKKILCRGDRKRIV

[2] = target: T2, Alpha-2B adrenergic receptor (Homo sapiens, UniProt P18089); experiment: Displacement of [3H]rawolscine from human cloned adrenergic alpha-2B receptor transfected in CHO cells; format: cell-based
T2 sequence (P18089 whole entry): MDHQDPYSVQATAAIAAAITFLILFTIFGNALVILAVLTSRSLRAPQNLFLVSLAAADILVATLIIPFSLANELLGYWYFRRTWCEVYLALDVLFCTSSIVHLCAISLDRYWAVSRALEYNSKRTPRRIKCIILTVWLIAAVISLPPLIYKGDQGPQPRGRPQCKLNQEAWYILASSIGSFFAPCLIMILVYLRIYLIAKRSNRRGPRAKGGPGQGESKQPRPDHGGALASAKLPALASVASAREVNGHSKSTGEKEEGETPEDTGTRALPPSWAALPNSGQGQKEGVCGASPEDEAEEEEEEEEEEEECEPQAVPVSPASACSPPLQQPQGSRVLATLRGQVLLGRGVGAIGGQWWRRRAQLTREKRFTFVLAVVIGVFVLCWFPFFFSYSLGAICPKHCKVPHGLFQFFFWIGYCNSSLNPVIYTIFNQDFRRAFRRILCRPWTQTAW

[3] = target: T3, Alpha-2C adrenergic receptor (Homo sapiens, UniProt P18825); experiment: Displacement of [3H]rawolscine from human cloned adrenergic Alpha-2C receptor transfected in CHO cells; format: cell-based
T3 sequence (P18825 whole entry): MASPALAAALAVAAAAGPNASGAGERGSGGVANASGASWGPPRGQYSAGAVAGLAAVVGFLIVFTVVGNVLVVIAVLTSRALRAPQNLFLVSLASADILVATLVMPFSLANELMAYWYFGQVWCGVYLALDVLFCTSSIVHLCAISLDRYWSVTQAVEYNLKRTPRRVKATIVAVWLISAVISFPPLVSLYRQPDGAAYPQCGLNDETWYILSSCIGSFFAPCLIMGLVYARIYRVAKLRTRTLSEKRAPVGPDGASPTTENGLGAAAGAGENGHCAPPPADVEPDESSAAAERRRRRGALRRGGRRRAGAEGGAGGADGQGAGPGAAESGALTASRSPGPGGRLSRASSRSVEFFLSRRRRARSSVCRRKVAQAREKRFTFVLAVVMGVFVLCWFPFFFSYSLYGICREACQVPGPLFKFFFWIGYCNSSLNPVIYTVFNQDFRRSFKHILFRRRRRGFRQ

[4] = target: Sodium-dependent serotonin transporter (Homo sapiens, UniProt P31645); experiment: Displacement of [3H]paroxetine from human cloned 5HTT receptor transfected in CHO cells; format: cell-based
[5] = target: T4, Adrenergic receptor alpha-2 (Rattus norvegicus) (UniProt P22086+P19328+P22909); experiment: Reversal of medetomidine-induced loss of righting reflex in sc dosed Wistar rat after 1hr; format: functional, organism-based
[6] = target: T4, Adrenergic receptor alpha-2 (Rattus norvegicus); experiment: Reversal of medetomidine-induced loss of righting reflex in po dosed Wistar rat after 1hr; format: functional, organism-based
[7] = target: Sodium-dependent serotonin transporter (Rattus norvegicus) (UniProt P31652); experiment: Antagonism of p-chloroamphetamine-induced excitation in sc dosed Wistar rat after 1 hr; format: functional, organism-based
[8] = target: Sodium-dependent serotonin transporter (Rattus norvegicus) (UniProt P31652); experiment: Antagonism of p-chloroamphetamine-induced excitation in po dosed Wistar rat after 1 hr; format: functional, organism-based
[9] = target: Sodium-dependent serotonin transporter (Rattus norvegicus) (UniProt P31652); experiment: Antagonism of p-chloroamphetamine-induced 5HT depletion in sc dosed Wistar rat prefrontal cortex after 1 hr; format: functional, organism-based
[10] = target: Sodium-dependent serotonin transporter (Rattus norvegicus) (UniProt P31652); experiment: Antagonism of p-chloroamphetamine-induced 5HT depletion in po dosed Wistar rat prefrontal cortex after 1 hr; format: functional, organism-based
[11] = target: T5, Alpha-2B adrenergic receptor (Homo sapiens) (UniProt P18089); experiment: Agonist activity at human adrenergic alpha-2B receptor transfected in CHO cells by [35S]GTPgammaS binding assay; format: functional, cell-based
T5 sequence (whole entry): T2 sequence (P18089 whole entry)

[12] = target: T6, Alpha-2C adrenergic receptor (Homo sapiens) (UniProt P18825); experiment: Agonist activity at human adrenergic Alpha-2C receptor transfected in CHO cells by [35S]GTPgammaS binding assay; format: functional, cell-based
T6 sequence (whole entry): T3 sequence (P18825 whole entry)

[13] = target: T5, Alpha-2B adrenergic receptor (Homo sapiens); experiment: Antagonist activity at human alpha-2B receptor transfected in CHO cells by [35S]GTPgammaS binding assay; format: functional, cell-based
[14] = target: T6, Alpha-2C adrenergic receptor (Homo sapiens); experiment: Antagonist activity at human alpha-2C receptor transfected in CHO cells by [35S]GTPgammaS binding assay; format: functional, cell-based
[15] = target: T4, Adrenergic receptor alpha-2 (Rattus norvegicus); experiment: Receptor occupancy ex vivo by displacement of [3H]idazoxan binding from alpha-2 adrenoceptor in sc dosed Wistar rat entorhinal cortex after 1 hr; format: functional, organism-based
[16] = target: T4, Adrenergic receptor alpha-2 (Rattus norvegicus); experiment: Receptor occupancy ex vivo by displacement of [3H]idazoxan binding from alpha-2 adrenoceptor in po dosed Wistar rat entorhinal cortex after 1 hr; format: functional, organism-based
[17] = target: T4, Adrenergic receptor alpha-2 (Rattus norvegicus); experiment: Reversal of medetomidine-induced loss of righting reflex in sc dosed Wistar rat after 0.5 hrs; format: functional, organism-based
[18] = target: T4, Adrenergic receptor alpha-2 (Rattus norvegicus); experiment: Reversal of medetomidine-induced loss of righting reflex in sc dosed Wistar rat after 1 hr; format: functional, organism-based
[19] = target: T4, Adrenergic receptor alpha-2 (Rattus norvegicus); experiment: Reversal of medetomidine-induced loss of righting reflex in sc dosed Wistar rat after 2 hrs; format: functional, organism-based
[20] = target: T4, Adrenergic receptor alpha-2 (Rattus norvegicus); experiment: Reversal of medetomidine-induced loss of righting reflex in sc dosed Wistar rat after 4 hrs; format: functional, organism-based
[21] = target: T4, Adrenergic receptor alpha-2 (Rattus norvegicus); experiment: Reversal of medetomidine-induced loss of righting reflex in sc dosed Wistar rat after 8 hrs; format: functional, organism-based
[22] = target: T4, Adrenergic receptor alpha-2 (Rattus norvegicus); experiment: Reversal of medetomidine-induced loss of righting reflex in sc dosed Wistar rat after 16 hrs; format: functional, organism-based
[23] = target: T4, Adrenergic receptor alpha-2 (Rattus norvegicus); experiment: Reversal of medetomidine-induced loss of righting reflex in sc dosed Wistar rat after 32 hrs; format: functional, organism-based
[24] = target: T4, Adrenergic receptor alpha-2 (Rattus norvegicus); experiment: Reversal of medetomidine-induced loss of righting reflex in po dosed Wistar rat after 0.5 hrs; format: functional, organism-based
[25] = target: T4, Adrenergic receptor alpha-2 (Rattus norvegicus); experiment: Reversal of medetomidine-induced loss of righting reflex in po dosed Wistar rat after 1 hr; format: functional, organism-based
[26] = target: T4, Adrenergic receptor alpha-2 (Rattus norvegicus); experiment: Reversal of medetomidine-induced loss of righting reflex in po dosed Wistar rat after 2 hrs; format: functional, organism-based
[27] = target: T4, Adrenergic receptor alpha-2 (Rattus norvegicus); experiment: Reversal of medetomidine-induced loss of righting reflex in po dosed Wistar rat after 4 hrs; format: functional, organism-based
[28] = target: T4, Adrenergic receptor alpha-2 (Rattus norvegicus); experiment: Reversal of medetomidine-induced loss of righting reflex in po dosed Wistar rat after 8 hrs; format: functional, organism-based
[29] = target: T4, Adrenergic receptor alpha-2 (Rattus norvegicus); experiment: Reversal of medetomidine-induced loss of righting reflex in po dosed Wistar rat after 16 hrs; format: functional, organism-based

Sequence of Sodium-dependent serotonin transporter (Rattus norvegicus) (P31652 whole entry): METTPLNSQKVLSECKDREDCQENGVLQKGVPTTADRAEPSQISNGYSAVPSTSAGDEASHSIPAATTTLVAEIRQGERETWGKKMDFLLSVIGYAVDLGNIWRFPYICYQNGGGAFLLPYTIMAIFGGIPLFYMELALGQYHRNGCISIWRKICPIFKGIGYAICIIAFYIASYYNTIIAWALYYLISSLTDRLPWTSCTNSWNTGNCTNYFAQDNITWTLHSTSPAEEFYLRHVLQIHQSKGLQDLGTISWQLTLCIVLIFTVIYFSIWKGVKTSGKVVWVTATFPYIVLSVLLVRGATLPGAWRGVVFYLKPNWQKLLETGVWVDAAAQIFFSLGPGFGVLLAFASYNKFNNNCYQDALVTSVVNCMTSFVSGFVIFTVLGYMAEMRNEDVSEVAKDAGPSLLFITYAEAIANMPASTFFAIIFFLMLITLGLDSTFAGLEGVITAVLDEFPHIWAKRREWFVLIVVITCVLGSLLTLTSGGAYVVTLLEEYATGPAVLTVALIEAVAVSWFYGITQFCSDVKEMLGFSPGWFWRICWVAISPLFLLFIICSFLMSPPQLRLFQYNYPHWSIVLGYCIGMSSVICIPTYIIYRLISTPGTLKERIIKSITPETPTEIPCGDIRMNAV
Sequence of Sodium-dependent serotonin transporter (P31645 whole entry): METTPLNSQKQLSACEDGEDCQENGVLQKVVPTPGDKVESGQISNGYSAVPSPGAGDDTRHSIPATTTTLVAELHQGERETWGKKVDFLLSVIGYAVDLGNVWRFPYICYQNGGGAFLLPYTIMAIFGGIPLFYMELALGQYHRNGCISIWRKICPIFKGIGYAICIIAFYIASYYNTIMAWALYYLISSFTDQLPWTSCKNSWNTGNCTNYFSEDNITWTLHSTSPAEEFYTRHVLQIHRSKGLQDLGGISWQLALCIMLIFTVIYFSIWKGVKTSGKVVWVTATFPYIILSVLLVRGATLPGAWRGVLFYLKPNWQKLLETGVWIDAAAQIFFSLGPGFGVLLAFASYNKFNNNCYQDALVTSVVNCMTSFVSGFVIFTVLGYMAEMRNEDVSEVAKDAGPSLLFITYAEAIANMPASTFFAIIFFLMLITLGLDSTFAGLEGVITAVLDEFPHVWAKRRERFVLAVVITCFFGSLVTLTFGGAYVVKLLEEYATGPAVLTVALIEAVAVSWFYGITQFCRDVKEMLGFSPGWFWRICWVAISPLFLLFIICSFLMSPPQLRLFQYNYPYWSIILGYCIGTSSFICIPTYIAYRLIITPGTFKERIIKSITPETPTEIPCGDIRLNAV

| Ki [1] | Ki [2] | Ki [3] | Ki [4] | ED50 [5] | ED50 [6] | ED50 [7] | Structure (SMILES) | also measured |
| --- | --- | --- | --- | --- | --- | --- | --- | --- |
| 54 nM | 14 nM | 4.5 nM | 2.1 nM | – | – | – | COc1cc2c(cc1OC)C1=NOC(CN3CCN(C/C=C/c4ccc(F)cc4)CC3)C1CO2 (single isomer, unassigned; (+)) [listing 1 of 2 here] | – |
| – | – | – | – | 0.08 mg/kg | 0.63 mg/kg | > 10 mg/kg | COc1cc2c(cc1OC)C1=NOC(CN3CCN(C/C(C)=C/c4ccccc4)CC3)C1CN2 (single isomer, unassigned; (+)) | ED50 [8]: > 10 mg/kg; ED50 [9]: 4.1 mg/kg |
| – | – | – | – | 3.1 mg/kg | 3.5 mg/kg | 0.05 mg/kg | COc1cc2c(cc1OC)C1=NOC(CN3CCN(C/C=C/c4ccc(F)cc4)CC3)C1CO2 (single isomer, unassigned; (+)) [listing 2 of 2 here] | ED50 [8]: 0.32 mg/kg; ED50 [9]: 0.03 mg/kg; ED50 [10]: 0.05 mg/kg |
| 117 nM | 162 nM | 72 nM | 14 nM | – | – | – | COc1cc2c(cc1OC)C1=NOC(CN3CCN(C/C=C/c4ccc(F)cc4)CC3)C1CO2 (cis isomer) | – |
| – | – | – | – | 5 mg/kg | – | – | COc1cc2c(cc1OC)C1=NO[C@@H](CN3CCN(C/C(C)=C/c4ccc(F)cc4)CC3)[C@@H]1CO2 (stereo in doubt; form 2) [listing 1 of 2 here] | – |
| – | – | – | – | 0.1 mg/kg | – | 4.7 mg/kg | COc1cc2c(cc1OC)C1=NOC(CN3CCN(C/C=C/c4ccc(F)cc4)CC3)C1CO2 (racemic) | – |
| 28 nM | 21 nM | 10 nM | – | – | – | – | COc1cc2c(cc1OC)C1=NO[C@@H](CN3CCN(C/C(C)=C/c4ccc(F)cc4)CC3)[C@@H]1CO2 (stereo in doubt; form 2) [listing 2 of 2 here] | – |
| – | 26 nM | 8.3 nM | 24 nM | – | – | – | COc1cc2c(cc1OC)C1=NOC(CN3CCN(C/C(C)=C/c4ccccc4)CC3)C1CN2 (single isomer, unassigned; (-)) | – |
| – | – | – | – | 2.7 mg/kg | 1.3 mg/kg | – | COc1cc2c(cc1OC)C1=NO[C@@H](CN3CCN(C/C(C)=C/c4ccc(F)cc4)CC3)[C@@H]1CO2 (stereo in doubt; form 1) | Activity [11]: inactive; Activity [12]: inactive; Kb [13]: 1.4 nM; Kb [14]: 0.91 nM; ED50 [15]: 2.6 mg/kg; ED50 [16]: 8.8 mg/kg; ED50 [17]: 1.2 mg/kg; ED50 [18]: 2.7 mg/kg; ED50 [19]: 4.1 mg/kg; ED50 [20]: 2.3 mg/kg; ED50 [21]: 4.7 mg/kg; ED50 [22]: 7.1 mg/kg; ED50 [23]: > 10 mg/kg; ED50 [24]: 1 mg/kg; ED50 [25]: 1.3 mg/kg; ED50 [26]: 2.7 mg/kg; ED50 [27]: 3.6 mg/kg; ED50 [28]: 9.3 mg/kg; ED50 [29]: 25 mg/kg |
